The target of data set [1] is T1, human fetal artery (Homo sapiens, UniProt P21730).
T1 sequence (P21730 1-350): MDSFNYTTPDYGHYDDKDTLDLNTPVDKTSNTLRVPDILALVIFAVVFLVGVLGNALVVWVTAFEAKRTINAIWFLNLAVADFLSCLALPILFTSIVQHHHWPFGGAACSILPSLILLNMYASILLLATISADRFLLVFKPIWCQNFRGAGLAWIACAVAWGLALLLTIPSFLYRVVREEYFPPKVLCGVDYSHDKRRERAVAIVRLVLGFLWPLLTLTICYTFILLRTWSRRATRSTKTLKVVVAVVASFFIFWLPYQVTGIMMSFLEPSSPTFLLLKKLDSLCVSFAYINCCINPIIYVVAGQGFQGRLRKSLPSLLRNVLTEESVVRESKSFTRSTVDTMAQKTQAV
Kind of data set: Smooth muscle contraction of human fetal artery (spasmogenic assay). It counts as cell-based. Particulars: for log potency ratio at the EC50 level compared to C5a / % of C5a potency: fetal artery; for % of C5a potency: from log potency ratio at EC50 level. As for the experimental part: (§1) Tissue strips were suspended in 2 ml organ baths, containing physiological salt solution (Krebs-Ringers solution: 118 mM NaCl, 4.7 mM KCl, 2.5 mM CaCl2, 25 mM NaHCO3, 1.2 mM KH2PO4, 1.2 mM MgSO4, 10 mM Glucose) maintained at 37° C., pH 7.4 and continuously aerated with a 95% CO2 mixture. Each tissue preparation was equilibrated for 1 hr prior to testing with peptides. All drugs were kept on ice during the procedure and isometric tensions were measured using strain-gauge transducers (Grass FT-03) with a computerized chart recording system (MacLab/8). After the contraction to each peptide reached a plateau, histamine (10 μM) was added to obtain the maximum tissue response. Because tachyphylaxis occurs rapidly to single doses of C5a or peptides, cumulative dose-response curves could not be obtained. Instead, the dose-response profile was compiled from multiple strips from each tissue. After exposing each strip to a single concentration of the peptide followed by supramaximal histamine, the response was expressed as a percentage of the maximal contraction to histamine. Full dose-response curves for C5a (human recombinant C5a; Sigma) or individual peptides were performed in each experiment for each tissue and the EC50 values (i.e., concentration of peptide producing 50t of the maximal response to each peptide) obtained by probit analysis. pD2 transforms [−log EC50 (M)] were calculated for each dose-response curve, and means ±SE obtained for each peptide.
Human umbilical cords were obtained from the Mater Misericordiae Hospital, South Brisbane, Queensland within minutes of delivery. The mid-section of the umbilical cord was cut from the placenta, placed in physiological salt solution and stored at 5° C. for up to 24 hrs. […] The fetal arteries were dissected out and cut into longitudinal strips. The intimal surface of the arteries was rubbed with a cotton bud to remove the endothelium. Strips approximately 2 cm×3 mm were suspended in organ baths under 20 mN of resting tension. Arterial strips were tested repeatedly with peptides following a 60 min drug-free period of rest between assays (Taylor et al. (1994), Inflammation, in press).

The subject of data set [2] is guinea-pig platelets. Kind of data set: Guinea-pig platelet aggregation assay. It counts as cell-based. Particulars: for Platelet Aggreg (threshold concentration producing visible platelet aggregation): guinea-pig platelets, threshold response. As for the experimental part:
This assay was performed on platelets obtained from the arterial blood of anesthetized male Hartley guinea pigs according to previously published methods (Ember et al., 1992, supra). Briefly, platelet-rich plasma was prepared and diluted to 3×10^8 platelets/ml in 0.39% sodium citrate solution. Peptide samples were diluted in a stepwise fashion in 1.5-fold dilutions and placed in 96-well microplates. A […] peptide sample, […] of platelet-rich plasma, and one 3 mm glass bead were placed in each well. The plates were shaken horizontally at 100 rpm for 5 min at 37° C. Platelet aggregation was evaluated visually in an inverted microscope at 40× magnification. The greatest dilution of peptide producing visible aggregation was scored as the threshold concentration for activity. Natural C5a and C3a were included as internal standards. At least three independent duplicate determinations were conducted for every peptide.

The target in data set [3] is T2, human neutrophils (PMN) (Homo sapiens, UniProt P21730).
T2 sequence (P21730 1-350): T1 sequence (P21730 1-350)
It counts as cell-based. The settings on record: human neutrophils; read-out: PMN Polarization EC50. As for the experimental part: Neutrophil polarization assays were conducted as described by Ember et al., 1992, supra. Human neutrophils (PMN) were prepared according to the procedure described by Dahinden et al. (1979), J. Immunol., 130: 857-862. The assay for measuring the effect of C5a analogs on PMN polarization was described by Haston & Shields (1985), J. Immunol. Methods, 81: 229-237. Briefly, PMN (1×10^6 cells/ml) were suspended in 10 mM 3- (N-morpholino) propane sulfonic acid (Sigma Chemical Co.) containing EBSS. […] After 10 minutes of incubation at room temperature, the cells were washed twice and stored until microscopic examination. Cells deviating from the typical spherical shape were visually scored as polarized. Results are expressed as percent of polarized cells per total cells counted (300 cells counted/sample).

The target of data set [4] is T2, human neutrophils (PMN). It counts as cell-based. The settings on record: human neutrophils, β-glucuronidase release; read-out: PMN Enzyme Release EC50. The procedure: The release of glucuronidase from human neutrophils was determined as described by Schroder et al. (1987), J. Immunol., 139: 3474-3483. Briefly, human neutrophils were pretreated with cytochalasin B (5 μg/ml, 10 min, 37° C.). The cells (10^6) were incubated in the presence of stimulants for 60 minutes at 37° C. in a final volume of 200 μl and then centrifuged. The supernatant was collected and 50 μl were incubated with 50 μl of 0.01 M P-nitrophenyl-β-D-glucuronide (in 0.1 M sodium acetate at pH 4 for 18 h) as triplicate determinations in 96-well microtiter plates (Corning). The reaction was stopped by addition of 100 μl of 0.4 M gly buffer at pH 10. The reaction developed color that was read at 405 nm in a Titertec Multiscan (MCC/340) ELISA reader. The β-glucuronidase released was expressed as the percentage of total enzyme in the cell that could be released by addition of 0.2% Triton X-100 (Pierce).

Data set [5] concerns serum carboxypeptidases. Kind of data set: Stability toward serum carboxypeptidases (incubation in normal human serum, HPLC). It counts as in vitro ADME. The settings on record: 37° C., 1 h. The procedure:
FIG. 10. HPLC profiles of decapeptide analogs. FIG. 10A: HPLC of […] (peptide/Sequence I.D. No. 2); a=purified peptide; b=des-Arg peptide ([…]; Sequence I.D. No. 24); c=des-Arg peptide in saline, no incubation; d=des-Arg peptide in saline with incubation for 1 h at 37° C.; e=des-Arg peptide in normal human serum with incubation for 1 h at 37° C. FIG. 10B: HPLC of […]aR (Sequence I.D. No. 10); a=purified peptide; b=peptide in saline, no incubation; c=peptide in saline with incubation for 1 h at 37° C.; d=peptide in normal human serum with incubation for 1 h at 37° C. Solvent system 1: 70 mM triethylamine/phosphoric acid buffer, pH-2.3. Solvent system 2: 60% acetonitrile in the Solvent 1 buffer. Linear gradient of 30-50% solvent 2 at.1%/min, slope=1 ml/min, absorbance monitored at 214 nm.
Both peptides were incubated in normal human serum at 37° C. for 1 h and thereafter reanalyzed on HPLC.

In data set [6] the test system is guinea-pig lung parenchyma. Kind of data set: Smooth muscle contraction of guinea-pig lung parenchyma. It is filed as cell-based. The settings on record: arithmetic mean. As for the experimental part:
as §1, with “Each” for “Tissue strips were suspended in 2 ml organ baths, containing physiological salt solution (Krebs-Ringers solution: 118 mM NaCl, 4.7 mM KCl, 2.5 mM CaCl2, 25 mM NaHCO3, 1.2 mM KH2PO4, 1.2 mM MgSO4, 10 mM Glucose) maintained at 37° C., pH 7.4 and continuously aerated with a 95% CO2 mixture. Each”

pEC50: −log10 of the molar value. Where two headings read alike, the source gives them in different places. Ends that are not written are not given here.

Usually pEC50 stands for −log10 of the EC50, conventionally taken in molar units.

For `CSCC[C@H](NC(=O)[C@H](CC(=O)O)NC(=O)[C@H](CCCCN)NC(=O)[C@H](Cc1ccccc1)NC(=O)[C@H](CO)NC(=O)[C@@H](N)Cc1ccc(O)cc1)C(=O)N1CCC[C@H]1C(=O)N[C@@H](CC(C)C)C(=O)N[C@H](C)C(=O)N[C@@H](CCCNC(=N)N)C(=O)O` [peptide 10], in data set [1], the “log potency ratio at the EC50 level compared to C5a” value is on record as 1.42±0.13 and the “% of C5a potency” value is on record as 4%. Moreover, the “potency relative to peptide 2 in spasmogenic activity” value in data set [1] (more potent than peptide 2) was “about 32 fold”. For the same compound, the “Platelet Aggreg (threshold concentration producing visible platelet aggregation)” value in data set [2] was 1.3 µM. The “potency relative to peptide 2 in platelet aggregation” value in data set [2] (more potent than peptide 2) is reported as “about 18 fold”. Moreover, the pEC50 in data set [3] is 5.68. Further, the pEC50 in data set [4] is 4.24. In data set [5], the “cleavage of the C-terminal Arg” value was “none”.
In the case of YSFKDMQLGR-OH [peptide 2], in data set [1], the “log potency ratio at the EC50 level compared to C5a” value turned out to be 2.78±0.10. In addition, the “% of C5a potency” value in data set [1] came to 0.2%. For the same compound, the “potency relative to the C-terminal 19-mer of natural sequence” value in data set [1] (smooth muscle contraction of human fetal artery (FIG. 1)) was “about 20 times”. Further, the “Platelet Aggreg (threshold concentration producing visible platelet aggregation)” value in data set [2] worked out at 22.9 µM. The figures for the pEC50 in data set [6], in data set [3] and in data set [4] were 4.55, 5.40 and 4.30, respectively.

(Values after patent publication US6465614B1, “High-affinity response-selective C-terminal analogs of C5a anaphylatoxin” (priority 1994, dated 2002).)
